According to ChEMBL document CHEMBL1201862, “PubChem BioAssay data set” (2004):
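Values below derive from 48-hour exposures of cells grown in 96-well plates, with endpoints linearly interpolated between the two concentrations bracketing the appropriate inhibition level. At the GI50, growth is halved.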 The source made the active and inactive calls. Rule as the data show it: active = GI50 up to about 1.1 µM and inactive = higher.

What was measured:
Assay in all cases: NCI-60 cell line screen, 48 h
NCI-H23 = test system: NCI-H23
CAKI-1 = test system: CAKI-1
TK-10 = test system: TK-10
SW-620 = test system: SW-620
SNB-19 = test system: SNB-19
MDA-N = test system: MDA-N
K562 = test system: K562
ACHN = test system: ACHN
LOX IMVI = test system: LOX IMVI
COLO 205 = test system: COLO 205
EKVX = test system: EKVX
HL-60 = test system: HL-60
UACC-62 = test system: UACC-62
MOLT-4 = test system: MOLT-4
HT-29 = test system: HT-29
U-251 = test system: U-251
KM12 = test system: KM12
SK-OV-3 = test system: SK-OV-3
T47D = test system: T47D
SNB-75 = test system: SNB-75

Row | Compound | GI50 (NCI-H23) | GI50 (CAKI-1) | GI50 (TK-10) | GI50 (SW-620) | GI50 (SNB-19) | GI50 (MDA-N) | GI50 (K562) | GI50 (ACHN) | GI50 (LOX IMVI) | GI50 (COLO 205) | GI50 (EKVX) | GI50 (HL-60) | GI50 (UACC-62) | GI50 (MOLT-4) | GI50 (HT-29) | GI50 (U-251) | GI50 (KM12) | GI50 (SK-OV-3) | GI50 (T47D) | GI50 (SNB-75)
1 | COc1ccc(SC(C)(SC)c2ccccn2)c(OC)n1 (stereo not given) | 35.4 µM (inactive) | > 100 µM (inactive) | > 100 µM (inactive) | > 100 µM (inactive) | > 100 µM (inactive) | 84.1 µM (inactive) | 51.4 µM (inactive) | > 100 µM (inactive) | 72.1 µM (inactive) | 31.6 µM (inactive) | > 100 µM (inactive) | 3.24 µM (inactive) | 87.3 µM (inactive) | 3.22 µM (inactive) | 42.7 µM (inactive) | > 100 µM (inactive) | 79.1 µM (inactive) | – | – | –
2 | O=C(NCP(=O)(Oc1ccccc1)Oc1ccccc1)OCc1ccccc1 | > 100 µM (inactive) | > 100 µM (inactive) | > 100 µM (inactive) | > 100 µM (inactive) | > 100 µM (inactive) | – | > 100 µM (inactive) | 80.5 µM (inactive) | > 100 µM (inactive) | > 100 µM (inactive) | > 100 µM (inactive) | > 100 µM (inactive) | 62.8 µM (inactive) | > 100 µM (inactive) | > 100 µM (inactive) | > 100 µM (inactive) | > 100 µM (inactive) | 33.1 µM (inactive) | > 100 µM (inactive) | 32 µM (inactive)
3 | O=C1C/C(Br)=C\c2ccccc2-c2ccccc21 | 3.16 µM (inactive) | 1.98 µM (inactive) | 4.78 µM (inactive) | 1.39 µM (inactive) | 6.89 µM (inactive) | – | 1.06 µM (active) | 1.91 µM (inactive) | 0.869 µM (active) | 3.76 µM (inactive) | 9.82 µM (inactive) | 1.71 µM (inactive) | 2.23 µM (inactive) | 2.16 µM (inactive) | 2.07 µM (inactive) | 2.51 µM (inactive) | 3.52 µM (inactive) | 3.03 µM (inactive) | – | 2.26 µM (inactive)
4 | c1csc(-c2csc(-c3cccs3)c2)c1 | 24.3 µM (inactive) | 84.3 µM (inactive) | 67.1 µM (inactive) | 35.9 µM (inactive) | 32.4 µM (inactive) | – | – | > 100 µM (inactive) | 57.7 µM (inactive) | 18 µM (inactive) | 39.8 µM (inactive) | 37.5 µM (inactive) | 20.8 µM (inactive) | 28.6 µM (inactive) | > 100 µM (inactive) | 77.4 µM (inactive) | 28.9 µM (inactive) | 95.9 µM (inactive) | 3.2 µM (inactive) | 50.5 µM (inactive)
5 | Cc1ccc2c(=O)c(-c3n[nH]c(=S)s3)c[nH]c2n1 | > 100 µM (inactive) | > 100 µM (inactive) | > 100 µM (inactive) | > 100 µM (inactive) | > 100 µM (inactive) | > 100 µM (inactive) | > 100 µM (inactive) | > 100 µM (inactive) | > 100 µM (inactive) | > 100 µM (inactive) | > 100 µM (inactive) | > 100 µM (inactive) | > 100 µM (inactive) | > 100 µM (inactive) | > 100 µM (inactive) | > 100 µM (inactive) | > 100 µM (inactive) | – | > 100 µM (inactive) | –
6 | O=C(CCC(=O)Nc1ccc(Cl)cc1)CC(=O)c1ccc2ccccc2c1 | > 100 µM (inactive) | > 100 µM (inactive) | > 100 µM (inactive) | > 100 µM (inactive) | > 100 µM (inactive) | – | > 100 µM (inactive) | > 100 µM (inactive) | > 100 µM (inactive) | > 100 µM (inactive) | > 100 µM (inactive) | > 100 µM (inactive) | 32.7 µM (inactive) | > 100 µM (inactive) | > 100 µM (inactive) | > 100 µM (inactive) | > 100 µM (inactive) | > 100 µM (inactive) | – | > 100 µM (inactive)
7 | COc1cc2[nH]c(=O)c3cc(C)cc4c(Cl)nc(c1OC)c2c43 | 85.5 µM (inactive) | 56.2 µM (inactive) | 31.2 µM (inactive) | > 100 µM (inactive) | 42 µM (inactive) | > 100 µM (inactive) | 67.8 µM (inactive) | 40.6 µM (inactive) | 53.2 µM (inactive) | 72.6 µM (inactive) | 18.1 µM (inactive) | 18.8 µM (inactive) | 28.3 µM (inactive) | 42.8 µM (inactive) | 89.9 µM (inactive) | 38.6 µM (inactive) | 96.6 µM (inactive) | 37.9 µM (inactive) | – | 22.9 µM (inactive)
8 | CCOC(=O)N(c1ccccc1)c1cc(=O)n2ccccc2n1 | > 100 µM (inactive) | > 100 µM (inactive) | > 100 µM (inactive) | > 100 µM (inactive) | > 100 µM (inactive) | – | > 100 µM (inactive) | > 100 µM (inactive) | > 100 µM (inactive) | > 100 µM (inactive) | > 100 µM (inactive) | > 100 µM (inactive) | > 100 µM (inactive) | > 100 µM (inactive) | > 100 µM (inactive) | > 100 µM (inactive) | > 100 µM (inactive) | > 100 µM (inactive) | > 100 µM (inactive) | > 100 µM (inactive)
9 | COc1ccc(N(C(=O)Nc2ccc(Cl)c(Cl)c2)C2c3cccn3C(=O)N2c2ccc(Cl)c(Cl)c2)cc1 (stereo not given) | 92 µM (inactive) | 26.9 µM (inactive) | > 100 µM (inactive) | > 100 µM (inactive) | > 100 µM (inactive) | 87.7 µM (inactive) | 13.8 µM (inactive) | > 100 µM (inactive) | 15.8 µM (inactive) | > 100 µM (inactive) | 42.3 µM (inactive) | 25.1 µM (inactive) | 41.9 µM (inactive) | 1.54 µM (inactive) | > 100 µM (inactive) | > 100 µM (inactive) | 30.5 µM (inactive) | – | – | –
10 | C=C1C(=O)OC2CCN3CC=C(COC(=O)C(C)(O)C4(CO4)C1C)C23 (stereo not given) | > 100 µM (inactive) | > 100 µM (inactive) | > 100 µM (inactive) | > 100 µM (inactive) | > 100 µM (inactive) | > 100 µM (inactive) | > 100 µM (inactive) | > 100 µM (inactive) | > 100 µM (inactive) | > 100 µM (inactive) | > 100 µM (inactive) | – | > 100 µM (inactive) | > 100 µM (inactive) | > 100 µM (inactive) | > 100 µM (inactive) | > 100 µM (inactive) | > 100 µM (inactive) | > 100 µM (inactive) | –
11 | O=C(NCCC1CNc2ccccc21)OCc1ccccc1 (stereo not given) | > 100 µM (inactive) | > 100 µM (inactive) | – | > 100 µM (inactive) | > 100 µM (inactive) | > 100 µM (inactive) | > 100 µM (inactive) | > 100 µM (inactive) | – | > 100 µM (inactive) | > 100 µM (inactive) | – | > 100 µM (inactive) | 71.4 µM (inactive) | > 100 µM (inactive) | > 100 µM (inactive) | > 100 µM (inactive) | > 100 µM (inactive) | – | –
12 | Clc1cc(-c2csc(Cl)c2)cs1 | > 100 µM (inactive) | > 100 µM (inactive) | > 100 µM (inactive) | > 100 µM (inactive) | > 100 µM (inactive) | > 100 µM (inactive) | – | > 100 µM (inactive) | > 100 µM (inactive) | > 100 µM (inactive) | > 100 µM (inactive) | > 100 µM (inactive) | > 100 µM (inactive) | > 100 µM (inactive) | > 100 µM (inactive) | > 100 µM (inactive) | > 100 µM (inactive) | – | – | > 100 µM (inactive)
13 | COc1cc(NC(C)CCCN)c2nccc(C)c2c1 (stereo not given) | 38 µM (inactive) | 21.2 µM (inactive) | 26.8 µM (inactive) | – | 27 µM (inactive) | 18.9 µM (inactive) | – | 26.6 µM (inactive) | – | 14.3 µM (inactive) | 55.3 µM (inactive) | 2.81 µM (inactive) | 19.9 µM (inactive) | – | 31.9 µM (inactive) | 19.6 µM (inactive) | 17.5 µM (inactive) | 28.4 µM (inactive) | – | 14.2 µM (inactive)
14 | C#CCNC(=O)NCCCC(NC(C)=O)C(=O)NCc1ccccc1 (stereo not given) | > 100 µM (inactive) | > 100 µM (inactive) | > 100 µM (inactive) | > 100 µM (inactive) | > 100 µM (inactive) | – | > 100 µM (inactive) | > 100 µM (inactive) | > 100 µM (inactive) | > 100 µM (inactive) | > 100 µM (inactive) | > 100 µM (inactive) | > 100 µM (inactive) | > 100 µM (inactive) | > 100 µM (inactive) | > 100 µM (inactive) | > 100 µM (inactive) | > 100 µM (inactive) | – | > 100 µM (inactive)
15 | COc1cc2c(c(OC)c1OC)-c1ccc(SC)c(=O)cc1[C@@H](NCc1ccc(F)cc1)CC2 | < 0.0075 µM (active) | 1.69 µM (inactive) | 12.3 µM (inactive) | < 0.0075 µM (active) | < 0.0075 µM (active) | – | < 0.0075 µM (active) | < 0.0075 µM (active) | < 0.0075 µM (active) | < 0.0075 µM (active) | 0.0693 µM (active) | 0.1 µM (active) | < 0.0075 µM (active) | < 0.0075 µM (active) | < 0.0075 µM (active) | < 0.0075 µM (active) | < 0.0075 µM (active) | < 0.0075 µM (active) | – | 12.7 µM (inactive)
16 | Clc1ccc(COC(Cn2ccnc2)c2ccc(Cl)cc2Cl)c(Cl)c1 (stereo not given) [MICONAZOLE NITRATE] | 8.15 µM (inactive) | 10.5 µM (inactive) | – | 12.8 µM (inactive) | 15.9 µM (inactive) | 3.89 µM (inactive) | 3.75 µM (inactive) | 12.2 µM (inactive) | 9.18 µM (inactive) | – | 10.5 µM (inactive) | 3.48 µM (inactive) | 10.2 µM (inactive) | 3.36 µM (inactive) | – | 11 µM (inactive) | 13.3 µM (inactive) | 14.3 µM (inactive) | 4.57 µM (inactive) | –
